Paper PMC3049263 (Bioorganic & medicinal chemistry, 2010)
Where two headings read alike, the source gives them in different places.

Key:
wild-type HIV-1YU2 virus = assay type: cell-based; settings: CD4-expressing Cf2Th-CCR5 target cells
recombinant HIV-1YU2 = assay type: cell-based; settings: CD4-deficient Cf2Th-CCR5 cells
[1] = tested on: D368A mutant HIV-1YU2 envelope glycoproteins; assay type: cell-based; settings: vestibule of the Phe 43 cavity
[2] = tested on: S375A mutant HIV-1YU2 envelope glycoproteins; assay type: cell-based; settings: base of the Phe 43 cavity
gp120 = gp120 (Human immunodeficiency virus type 1 group M subtype B, UniProt P35961); assay: Isothermal titration calorimetry binding to gp120

SMILES	Inhibition of CD4-gp120 binding / viral infection (in words) (wild-type HIV-1YU2 virus)	Enhancement of viral infectivity (in words) (recombinant HIV-1YU2)	gp120 binding affinity (in words) (gp120; ITC)	other results
CC(C)N1CCCCC1CCNC(=O)C(=O)Nc1ccc(Cl)c(F)c1 (stereo not shown) [Compound 25]	improved IC50	–	–	–
O=C(NCC1NCCc2ccccc21)C(=O)Nc1ccc(Cl)c(F)c1 (stereo not shown) [Compound 39]	–	decreased enhancement of viral infectivity	–	–
C[C@@H]1CCC[C@H](C)N1CCNC(=O)C(=O)Nc1ccc(Cl)c(F)c1 [Compound 50]	–	ineffective at enhancing viral infectivity	–	Effect of D368A mutation on analogue binding (in words) [1]: negative effect; Effect of S375A mutation on inhibition of CD4-gp120 binding (in words) [2]: increases the ability of these analogues to inhibit CD4-gp120 binding
CCN1CCCC1CNC(=O)C(=O)Nc1ccc(Cl)c(F)c1 (stereo not shown) [Compound 43]	–	without the accompanying enhancement of viral infectivity	binding affinity comparable to 41	–
CC1(C)CC(NC(=O)C(=O)Nc2ccc(Cl)c(F)c2)CC(C)(C)O1 [Compound 19]	–	–	reduced binding	–
CC1(C)CC(NC(=O)C(=O)Nc2ccc(Cl)c(F)c2)CC(C)(C)[N+]1(C)[O-] (stereo not shown) [Compound 20]	–	–	–	gp120 binding affinity (in words) (gp120): reduced binding
CC1(C)CC(NC(=O)C(=O)Nc2ccc(Cl)c(F)c2)CC(C)(C)C1 [Compound 17]	failed to exhibit inhibition	–	–	–
CC(C)N1CCC(NC(=O)C(=O)Nc2ccc(Cl)c(F)c2)CC1 [Compound 11]	–	–	retention of binding affinity	–
O=C(NCC1CCCN(CCO)C1)C(=O)Nc1ccc(Cl)c(F)c1 (stereo not shown) [Compound 51]	–	ineffective at enhancing viral infectivity	–	–
CC1(C)C2CCC1(C)C(NC(=O)C(=O)Nc1ccc(Cl)c(F)c1)C2 (stereo not shown) [Compound 18]	failed to exhibit inhibition	–	–	–
O=C(Nc1ccc(Cl)c(F)c1)C(=O)NC1CCNC2(CCC2)C1 (stereo not shown) [Compound 49]	maintained inhibition	activation of viral infectivity similar to 1	sub-micromolar binding affinity	Effect of D368A mutation on analogue binding (in words) [1]: negative effect; Effect of S375A mutation on inhibition of CD4-gp120 binding (in words) [2]: increases the ability of these analogues to inhibit CD4-gp120 binding
CCN1CCCC1CNC(=O)C(=O)Nc1ccc(Cl)cc1 (stereo not shown) [Compound 42]	inhibited CD4-gp120 binding	–	–	–
